{"source": "patent US8604016B2", "about": "“Heterocyclic inhibitors of glutaminase” (Calithera Biosciences Inc., priority 2011, dated 2013)"}
{"molecular_target": "recombinant form of Glutaminase 1 (GAC) (Homo sapiens, UniProt O94925)", "test": "Recombinant Enzyme Assay (GAC coupled to GDH, NADH absorbance, no preincubation)", "assay_type": "biochemical", "conditions": "no preincubation; read-out: GAC Delta N2 IC50 no preinc", "protocol": "Enzymatic reaction was started with the addition of 50 μL of enzyme solution (50 mM Tris-HCl pH 8.0, 0.2 mM EDTA, 150 mM K2HPO4, 0.1 mg/ml BSA, 1 mM DTT, 10 ppm antifoam, 4 units/ml GDH, 4 mM adenosine diphosphate, and 4 nM GAC) and read in a Molecular Devices M5 plate reader at 20° C. The plate reader was configured to read absorbance (λ=340 nm) in kinetic mode for 15 minutes. Data was recorded as milli-absorbance units per minute and slopes were compared to a control compound and a DMSO-only control on the same plate. Compounds with slopes less than the DMSO control were considered inhibitors and plate variability was assessed using the control compound.", "units": {"IC50": "µM"}}
{"molecule": "O=C(Nc1nnc(CCSCCc2nnc(NC(=O)[C@H](O)c3ccccc3)s2)s1)[C@H](O)c1ccccc1", "note": "[Compound 81]", "IC50": 10}
{"molecule": "O=C(Cc1ccco1)Nc1nnc(CCSCCc2nnc(NC(=O)Cc3ccco3)s2)s1", "note": "[Compound 82]", "IC50": 0.8}
{"molecule": "O=C(CC1CC1)Nc1nnc(CCSCCc2nnc(NC(=O)CC3CC3)s2)s1", "note": "[Compound 83]", "IC50": 3.9}
{"molecule": "O=C(Cc1ccsc1)Nc1nnc(CCSCCc2nnc(NC(=O)Cc3ccsc3)s2)s1", "note": "[Compound 84]", "IC50": 0.23}
{"molecule": "O=C(CC1CC1)Nc1nnc(CCCCc2nnc(NC(=O)CC3CC3)s2)s1", "note": "[Compound 85]", "IC50": 1.5}
{"molecule": "O=C(Cc1ccco1)Nc1nnc(CCCCc2nnc(NC(=O)Cc3ccco3)s2)s1", "note": "[Compound 86]", "IC50": 0.32}
{"molecule": "O=C(Cc1cccs1)Nc1nnc(CCCCc2nnc(NC(=O)Cc3cccs3)s2)s1", "note": "[Compound 87]", "IC50": 0.18}
{"molecule": "O=C(Cc1ccsc1)Nc1nnc(CCCCc2nnc(NC(=O)Cc3ccsc3)s2)s1", "note": "[Compound 88]", "IC50": 0.2}
{"molecule": "CN(C)C(Cc1ccccc1)C(=O)Nc1nnc(CCCCc2nnc(NC(=O)C(Cc3ccccc3)N(C)C)s2)s1", "note": "(centres unmarked) [Compound 89]", "IC50": "> 20"}
{"molecule": "O=C(Nc1nnc(CCCCc2nnc(NC(=O)[C@@H]3CC3c3ccccc3)s2)s1)C1CC1c1ccccc1", "note": "(some centres unmarked) [Compound 90]", "IC50": "> 20"}
{"molecule": "O=C(Nc1nnc(CCSCCc2nnc(NC(=O)C3C[C@@H]3c3ccccc3)s2)s1)C1C[C@@H]1c1ccccc1", "note": "(some centres unmarked) [Compound 91]", "IC50": "> 20"}
{"molecule": "O=C(Nc1nnc(CCSCCc2nnc(NC(=O)[C@@H](O)c3ccccc3)s2)s1)[C@@H](O)c1ccccc1", "note": "[Compound 93]", "IC50": 0.9}
{"molecule": "O=C(Nc1nnc(CCCCc2nnc(NC(=O)C3CC(O)c4ccccc43)s2)s1)C1CC(O)c2ccccc21", "note": "(centres unmarked) [Compound 94]", "IC50": 0.28}
{"molecule": "O=C(Nc1nnc(CCSCCc2nnc(NC(=O)C3CCOC3)s2)s1)C1CCOC1", "note": "(centres unmarked) [Compound 95]", "IC50": 2.9}
{"molecule": "CC(=O)OC(C)(C)C(=O)Nc1nnc(CCCCc2nnc(NC(=O)C(C)(C)OC(C)=O)s2)s1", "note": "[Compound 96]", "IC50": "> 20"}
{"molecule": "Cc1cc(C)n(CC(=O)Nc2nnc(CCSCCc3nnc(NC(=O)Cn4nc(C)cc4C)s3)s2)n1", "note": "[Compound 97]", "IC50": 0.56}
{"molecule": "CC(C)(C)OC(=O)Nc1cccc(CC(=O)Nc2nnc(CCSCCc3nnc(NC(=O)Cc4cccc(NC(=O)OC(C)(C)C)c4)s3)s2)c1", "note": "[Compound 98]", "IC50": "> 20"}
{"molecule": "COCCC(=O)Nc1nnc(CCCCc2nnc(NC(=O)CCOC)s2)s1", "note": "[Compound 100]", "IC50": 8.1}
{"molecule": "COCCC(=O)Nc1nnc(CCSCCc2nnc(NC(=O)CCOC)s2)s1", "note": "[Compound 101]", "IC50": 24}
{"molecule": "O=C(Cc1cccc(F)c1)Nc1nnc(CCSCCc2nnc(NC(=O)Cc3cccc(F)c3)s2)s1", "note": "[Compound 102]", "IC50": 0.24}
{"molecule": "CC1(C)OC(=O)[C@@H](CC(=O)Nc2nnc(CCCCc3nnc(NC(=O)C[C@H]4OC(C)(C)OC4=O)s3)s2)O1", "note": "[Compound 103]", "IC50": 19}
{"molecule": "CC1(C)OC(=O)[C@@H](CC(=O)Nc2nnc(CCSCCc3nnc(NC(=O)C[C@H]4OC(C)(C)OC4=O)s3)s2)O1", "note": "[Compound 104]", "IC50": "> 20"}
{"molecule": "CCC(C)C(=O)Nc1nnc(CCSCCc2nnc(NC(=O)C(C)CC)s2)s1", "note": "(centres unmarked) [Compound 105]", "IC50": 9.9}
{"molecule": "O=C(CCc1ccccc1)Nc1nnc(CCCCc2nnc(NC(=O)CCc3ccccc3)s2)s1", "note": "[Compound 106]", "IC50": "> 20"}
{"molecule": "CCC(C)C(=O)Nc1nnc(CCCCc2nnc(NC(=O)C(C)CC)s2)s1", "note": "(centres unmarked) [Compound 107]", "IC50": 4.3}
{"molecule": "O=C(Nc1nnc(CCSCCc2nnc(NC(=O)C3CCOCC3)s2)s1)C1CCOCC1", "note": "[Compound 108]", "IC50": "> 20"}
{"molecule": "CC(O)(C(=O)Nc1nnc(CCSCCc2nnc(NC(=O)C(C)(O)C(F)(F)F)s2)s1)C(F)(F)F", "note": "(centres unmarked) [Compound 109]", "IC50": "> 20"}
{"molecule": "CC(C)(C)OC(=O)NC(C(=O)Nc1nnc(CCSCCc2nnc(NC(=O)C(NC(=O)OC(C)(C)C)C3CCCC3)s2)s1)C1CCCC1", "note": "(centres unmarked) [Compound 110]", "IC50": "> 20"}
{"molecule": "CC(C)(C)OC(=O)N1CCC(CC(=O)Nc2nnc(CCSCCc3nnc(NC(=O)CC4CCN(C(=O)OC(C)(C)C)CC4)s3)s2)CC1", "note": "[Compound 111]", "IC50": 0.95}
